Data from publication PMC9145865, “Effects of Rare Phytocannabinoids on the Endocannabinoid System of Human Keratinocytes” (International Journal of Molecular Sciences, 2022).
Read-outs that look alike come from different tables or passages of the source.

Legend:
[1] = system: CB2; conditions: cited from earlier work
[2] = system: HaCaT cells; assay: MTT cytotoxicity assay; type: cell-based, human; conditions: for IC50: Homo sapiens, HaCaT cell viability; for relative toxicity on HaCaT cells: 6-24 h
Experimental: Immortalized HaCaT cells from the original depositor (DKFZ, Heidelberg) were purchased from CLS-Cell Lines Service (code 300493) and were of […] skin type (phototype). In all experiments, the HaCaT cells were cultured at 37 °C in a humidified 5% CO2 atmosphere in high-glucose Dulbecco’s Modified Eagle Medium (DMEM-HG), which was supplemented with 10% fetal bovine serum, and were used at the 5th–6th passage. Specific pCBs (CBG, CBC, THCV and CBGA) were used to treat the HaCaT cells at different time points (6 h, 12 h and 24 h) and at different concentrations (0.5 µM, 1.0 µM, 2.5 µM, 5.0 µM, 10 µM and 25 µM). Various doses of these pCBs were added directly to culture medium (with 1% fetal bovine serum) and the vehicles alone were added to controls, as follows: 0.8% methanol for CBG and CBC; 0.6% methanol for THCV; 0.6% acetonitrile for CBGA.
The HaCaT cells were seeded into 96-well plates at a density of 1 × 10^4 per well, incubated overnight and then treated with the selected pCBs at different concentrations (0.5 μM, 1.0 μM, 2.5 μM, 5.0 μM, 10 μM and 25 μM) for 6 h, 12 h and 24 h. Cell viability was assessed using a mitochondrial-dependent reduction of 3-[4,5-dimethylthiazol-2-yl]-2,5-diphenyl tetrazolium bromide (MTT) to purple formazan. After 4 h, the MTT solution was discarded and dimethyl sulfoxide (DMSO) was added to dissolve the formazan crystals. The cell viability was calculated by subtracting the 630 nm OD background from the 570 nm OD total signal of the cell-free blank of each sample and was expressed as percentage of the control (100%).

[3] = system: PPARδ; assay: Western blot protein expression of PPARδ; type: cell-based, human; conditions: HaCaT cells, half-IC50 dose, 24 h, vs. control
Experimental: (§1) The HaCaT cells were seeded into 6-well plates at a density of 4 × 10^4 per well, incubated overnight and then treated with the selected pCBs (6.0 µM of CBG, 4.0 µM of CBC, 9.0 µM of THCV and 13.0 µM of CBGA) for 24 h. The cell pellets were collected and then lysed in an ice-cold lysis buffer (10 mM of EDTA, 50 mM of pH 7.4 Tris–HCl, 150 mM of sodium chloride, 1% Triton-X-100, 2 mM of phenylmethylsulfonyl fluoride, 2 mM of sodium orthovanadate, […] of leupeptin and […] of aprotinin). The amount of protein was determined using the Bio-Rad Protein assay (Bio-Rad Laboratories, Hemel Hempstead, UK). An equal amount of protein (60 µg) was loaded onto 10% sodium dodecyl sulfate–polyacrylamide gels and blotted onto polyvinylidene fluoride sheets (Amersham Biosciences, Piscataway, NJ, USA). The membranes were blocked with dried 5% non-fat milk for 1 h and then incubated with suitable primary antibodies. Detection was performed using Azure Biosystems c400 (Dublin, CA, USA). The membranes were stripped using the Restore Western Blot Stripping Buffer from Thermo Fisher Scientific (Waltham, MA, USA) for 30 min under agitation at room temperature, according to the manufacturer’s instructions. The primary antibodies (Table 6) that were used were obtained from the following sources: […]

[4] = system: TRPV1; assay: Western blot protein expression of TRPV1; type: cell-based, human; conditions: HaCaT cells, half-IC50 dose, 24 h, vs. control
Experimental: as §1

[5] = system: FAAH; assay: FAAH activity assay in membranes of treated cells; type: cell-based, human; conditions: HaCaT cells, half-IC50 amount, 24 h, vs. control
Experimental: FAAH Assay: The HaCaT cells were seeded into 6-well plates at a density of 4 × 10^4 per well, incubated overnight and then treated with the selected pCBs (6.0 µM of CBG, 4.0 µM of CBC, 9.0 µM of THCV and 13.0 µM of CBGA) for 24 h. The cell pellets were collected and FAAH activity was determined using membranes that were isolated from these cells. Briefly, the membranes were incubated at pH 7.4 with 10 μM of [^3H]AEA and 50 mM of Tris–HCl, 0.05% BSA at 37 °C in water bath for 30 min. The reaction was blocked with 1 mL of chloroform–methanol (1:1 v/v) and centrifuged at 3000 rpm for 10 min at 4 °C. The aqueous (top) layer was collected and transferred into scintillation vials. The amount of [^3H]ethanolamine that was released was expressed as pmol per min per mg of protein, as reported in [67].

[6] = system: HaCaT cells; assay: Apoptosis, DNA fragmentation ELISA; type: cell-based, human; conditions: 24 h
Experimental: The HaCaT cells were seeded into 96-well plates at a density of 1 × 10^4 per well, incubated overnight and then treated with the selected pCBs at different concentrations (0.5 μM, 1.0 μM, 2.5 μM, 5.0 μM, 10 μM and 25 μM) for 24 h. After treatment, apoptotic cell death was quantified for specific compounds using ELISA assays, which were based on the evaluation of DNA fragmentation through an immunoassay for histone-associated DNA fragments in the cell cytoplasm. The specific determination of mono- and oligonucleosomes in the cytoplasmic fraction of cell lysates was performed by measuring the absorbance values at 405 nm, as reported in [60].

CCCCCc1cc(O)c2c(c1)OC(C)(CCC=C(C)C)C=C2 (centres unmarked) [CBC, cannabichromene]
activity at CB2 ([1]; ref [28],[50],[51]): CB2 agonist | IC50 ([2]; 6 h): 15.3 µM | IC50 ([2]; 12 h): 15.6 µM | IC50 ([2]; 24 h): 8.2 µM | PPARδ protein expression (in words) [3]: significantly reduced | Protein Expression PPARδ [3]: ↓++++ | Protein Expression TRPV1 [4]: ↑++++ | activity of FAAH [5]: significantly increased

CCCCCc1cc(O)c(C/C=C(\C)CCC=C(C)C)c(O)c1 [CBG, cannabigerol]
activity at CB2 ([1]; ref [52]): partial agonists | IC50 ([2]; 6 h): 13.5 µM | IC50 ([2]; 12 h): 13 µM | IC50 ([2]; 24 h): 11.7 µM | DNA fragmentation (hallmark of apoptosis) ([6]; 10 µM): induced the same effect | DNA fragmentation (hallmark of apoptosis) ([6]; 25 µM): significant increase | PPARδ protein expression (in words) [3]: significantly reduced | Protein Expression PPARδ [3]: ↓+++ | Protein Expression TRPV1 [4]: ↑++++ | activity of FAAH [5]: significantly increased

CCCCCc1cc(O)c(C/C=C(\C)CCC=C(C)C)c(O)c1C(=O)O [CBGA, cannabigerolic acid]
activity at CB2 ([1]; ref [52]): partial agonists | relative toxicity on HaCaT cells [2]: least toxic | IC50 ([2]; 6 h): > 25 µM | IC50 ([2]; 12 h): 24.5 µM | IC50 ([2]; 24 h): > 25 µM | DNA fragmentation (hallmark of apoptosis) ([6]; 25 µM): significant increase | PPARδ protein expression (in words) [3]: significantly reduced | Protein Expression PPARδ [3]: ↓++++ | Protein Expression TRPV1 [4]: ↑++++ | activity of FAAH [5]: significantly increased

CCCc1cc(O)c2c(c1)OC(C)(C)[C@@H]1CCC(C)=C[C@@H]21 [THCV, Δ^9-tetrahydrocannabivarin]
activity at CB2 ([1]; in vivo and in vitro, ref [53]): partial CB2 agonist | relative toxicity on HaCaT cells [2]: least toxic | IC50 ([2]; 6 h): 14.3 µM | IC50 ([2]; 12 h): 22.4 µM | IC50 ([2]; 24 h): 18.6 µM | DNA fragmentation (hallmark of apoptosis) ([6]; all doses (0.5-25 µM)): ineffective | PPARδ protein expression (in words) [3]: significantly reduced | Protein Expression PPARδ [3]: ↓++++ | Protein Expression TRPV1 [4]: ↑++++ | activity of FAAH [5]: significantly increased
